pIC50: −log10 of the molar value.
Test system: PKC
Experiment: PKC activity inhibition
Format: biochemical

O=S(=O)(NCCNCC=Cc1ccc(Br)cc1)c1cccc2cnccc12 [H-89, N-[2-(p-bromocinnamylamino)ethyl]-5-isoquinolinesulfonamide]
pIC50: 4.51
